As usually defined, the solubility is the concentration that dissolves in the medium under given conditions. Read a low solubility as a poorly soluble substance.

Data set [1] can be described thus: Solubility of inotodiol in organic solvents (Example 1, HPLC-UV-VIS of supernatant). In kind it is physicochemical. Conditions: 30 °C. On the procedure: To measure the […] solubility of inotodiol, the following was performed.
First, 50 mg of an inotodiol sample was mixed with 1 ml of an organic solvent. Subsequently, the mixture was vortexed and placed in a water bath sonicator for 15 minutes. […]

Data set [2] in a line: physchem. The following applies: distilled water, 30 °C, thermodynamic from solid.
Description: (§1) To measure the solubility of inotodiol esters with respect to water, 5 mg of each sample was suspended in 1 mL of distilled water and treated in an ultrasonic bath for 30 minutes. The mixture was then treated in an ultrasonic bath (Power sonic 410) for 30 minutes. Then, the mixture was incubated at 30° C. for 3 hours. The supernatant obtained after centrifugation (20,000×g, 10 minutes) was filtered through a 0.45 μm membrane filter of [sequence]
The nature of data set [3]: physchem. Conditions: 30 °C, water, thermodynamic from solid.
Description: as §1

≈ marks a conversion by molar mass, not a printed value.

In the case of `CC(C)=CC[C@@H](O)[C@@H](C)[C@H]1CC[C@@]2(C)C3=C(CC[C@]12C)[C@@]1(C)CC[C@H](O)C(C)(C)[C@@H]1CC3` [Inotodiol, (3S,5R,10S,13R,14R,17R)-17-[(2S,3R)-3-hydroxy-6-methylhept-5-en-2-yl]-4,4,10,13,14-pentamethyl-2,3,5,6,7,11,12,15,16,17-decahydro-1H-cyclopenta[a]phenanthren-3-ol], the Inotodiol concentration came to 0.976 mg/mL in data set [1] (solvent acetonitrile); 24.675 mg/mL in data set [1] (solvent dichloromethane); 25.152 mg/mL in data set [1] (solvent ethanol); 8.685 mg/mL in data set [1] (solvent ethyl acetate); 0.094 mg/mL in data set [1] (solvent hexane); 7.964 mg/mL in data set [1] (solvent methanol). Besides, the Inotodiol concentration in data set [1] (solvent t-butanol) amounted to 26.493 mg/mL. The values for the solubility at 3 h in the data set “physchem [2]” and in the data set “physchem [3]” were 0.0005 ± 0.00018 mg/mL (≈ 0.00113 mM) and 31 ± 3.8 mg/mL (≈ 70 mM), respectively.
